Experimental data reported in ChEMBL document CHEMBL4483862, “Open-source discovery of chemical leads for next-generation chemoprotective antimalarials” (2018).

System: Plasmodium berghei
Assay: Luciferase/luciferin-expressing antifolate-resistant parasites were used to infect a culture of HepG2 cells that were pre-incubated with compounds. Infected hepatocytes emit light due to the luciferase reaction. Assay results are presented as the percent inhibition of light emission compared to control. […]
Format: functional
Conditions: sporozoite; for IC90: read-out: LUCIFERASE INFECTION ASSAY - IC90

Row | SMILES | IC90 [µM] | other results
1 | NS(=O)(=O)c1ccc(CCNCC(=O)N2CCC(Cc3ccccc3)CC2)cc1 | > 10 | IC50 (HEPG2TOX_HILL_SLOPE 10, HEPG2TOX_R_SQUARED 0.966, PBLUC_HILL_SLOPE 4.42, PBLUC_R_SQUARED 0.274, read-out: LUCIFERASE INFECTION ASSAY - IC50): 7.8 µM
2 | Cn1c(NCc2ccccc2F)nc2cnc(-c3ccc4c(c3)OCO4)cc21 | 5.21 | IC50 (HEPG2TOX_HILL_SLOPE 10, HEPG2TOX_R_SQUARED 0.935, PBLUC_HILL_SLOPE 10.5, PBLUC_R_SQUARED 0.0559, read-out: LUCIFERASE INFECTION ASSAY - IC50): 4.23 µM
3 | CCOc1ccc(-c2nc(CSc3nnc(-c4ccccc4OC)n3CC)cs2)cc1 | > 10 | IC50 (HEPG2TOX_HILL_SLOPE 10.1, HEPG2TOX_R_SQUARED 0.28, PBLUC_HILL_SLOPE 16.2, PBLUC_R_SQUARED 0.242, read-out: LUCIFERASE INFECTION ASSAY - IC50): 9.09 µM
4 | CC1CCN(C(=O)COc2ccc(C(C)C)cc2Br)CC1 | 8.51 | IC50 (HEPG2TOX_HILL_SLOPE 9.85, HEPG2TOX_R_SQUARED 0.75, PBLUC_HILL_SLOPE 15.1, PBLUC_R_SQUARED 0.202, read-out: LUCIFERASE INFECTION ASSAY - IC50): 7.36 µM
5 | CCn1ccnc1C(=O)Nc1nc(-c2ccc3c(c2)OCCO3)cs1 | 1.92 | IC50 (HEPG2TOX_HILL_SLOPE 10.1, HEPG2TOX_R_SQUARED 0.135, PBLUC_HILL_SLOPE 182, PBLUC_R_SQUARED 0.438, read-out: LUCIFERASE INFECTION ASSAY - IC50): 1.89 µM
6 | O=C(Nc1nc2ccccc2[nH]1)c1ccc(Cl)c(S(=O)(=O)N2CCc3ccccc32)c1 | > 10 | IC50 (HEPG2TOX_HILL_SLOPE 9.78, HEPG2TOX_R_SQUARED 0.833, PBLUC_HILL_SLOPE 14, PBLUC_R_SQUARED 0.17, read-out: LUCIFERASE INFECTION ASSAY - IC50): 8.7 µM
7 | FC(F)(F)Oc1ccc(Nc2cc3[nH]c(-c4ccccn4)cc3cn2)cc1 | 5.04 | IC50 (HEPG2TOX_HILL_SLOPE 10.1, HEPG2TOX_R_SQUARED 0.985, PBLUC_HILL_SLOPE 7.97, PBLUC_R_SQUARED 0.35, read-out: LUCIFERASE INFECTION ASSAY - IC50): 3.82 µM
8 | COc1ccc(N2CCN(c3nc(Nc4cc(C)nn4-c4ccccc4)c(Cl)cc3Cl)CC2)cc1 | > 10 | IC50 (HEPG2TOX_HILL_SLOPE 10.1, 8.63, HEPG2TOX_R_SQUARED 0.279, 0.753, PBLUC_HILL_SLOPE 15.1, PBLUC_R_SQUARED 0.229, read-out: LUCIFERASE INFECTION ASSAY - IC50): 9.89 µM
9 | NC(Cc1ccc(F)cc1)c1csc(NC(=O)Nc2ccc(OC(F)(F)F)cc2)n1 (configuration not stated) | 5.69 | IC50 (HEPG2TOX_HILL_SLOPE 9.82, HEPG2TOX_R_SQUARED 0.883, PBLUC_HILL_SLOPE 24.7, PBLUC_R_SQUARED 0.388, read-out: LUCIFERASE INFECTION ASSAY - IC50): 5.2 µM
10 | Cc1ccc(-c2nonc2NC(=O)c2sc3ccccc3c2Cl)cc1 | 6.55 | IC50 (HEPG2TOX_HILL_SLOPE 10.3, HEPG2TOX_R_SQUARED 0.121, PBLUC_HILL_SLOPE 5.87, PBLUC_R_SQUARED 0.389, read-out: LUCIFERASE INFECTION ASSAY - IC50): 4.5 µM
11 | COc1ccc(CNCC(O)COc2ccc(C(C)(C)C)cc2C)cc1OC (configuration not stated) | 10 | IC50 (HEPG2TOX_HILL_SLOPE 9.88, HEPG2TOX_R_SQUARED 0.866, PBLUC_HILL_SLOPE 15, PBLUC_R_SQUARED 0.0695, read-out: LUCIFERASE INFECTION ASSAY - IC50): 8.63 µM
12 | COc1ccc(C(NS(=O)(=O)c2ccc(-n3ncc(Cl)c(Cl)c3=O)cc2)C(C)C)cc1 (configuration not stated) | 2.38 | IC50 (HEPG2TOX_HILL_SLOPE 9.92, HEPG2TOX_R_SQUARED 0.979, PBLUC_HILL_SLOPE 3.67, PBLUC_R_SQUARED 0.728, read-out: LUCIFERASE INFECTION ASSAY - IC50): 1.31 µM
13 | COc1ccc(OC)c(Cn2cc(Br)ccc2=O)c1 | > 10 | IC50 (HEPG2TOX_HILL_SLOPE 10.1, HEPG2TOX_R_SQUARED 0.0663, read-out: LUCIFERASE INFECTION ASSAY - IC50): > 10 µM
14 | O=C(CCN1CCN(c2ccccc2)CC1)N/N=C/c1cc(Br)ccc1O | > 10 | IC50 (HEPG2TOX_HILL_SLOPE 9.92, HEPG2TOX_R_SQUARED 0.702, PBLUC_HILL_SLOPE 4.41, PBLUC_R_SQUARED 0.46, read-out: LUCIFERASE INFECTION ASSAY - IC50): 6.08 µM
15 | O=C(/C=C/c1ccc(Cl)c([N+](=O)[O-])c1)c1ccc(NC2=NCCCS2)cc1 | 9.95 | IC50 (HEPG2TOX_HILL_SLOPE 9.82, HEPG2TOX_R_SQUARED 0.995, PBLUC_HILL_SLOPE 5.88, PBLUC_R_SQUARED 0.401, read-out: LUCIFERASE INFECTION ASSAY - IC50): 6.85 µM
16 | COc1ncccc1C(=O)Nc1ccccc1Cl | > 12.6 | IC50 (HEPG2TOX_HILL_SLOPE 9.95, HEPG2TOX_R_SQUARED 0.955, PBLUC_HILL_SLOPE 2.98, PBLUC_R_SQUARED 0.38, read-out: LUCIFERASE INFECTION ASSAY - IC50): 12.2 µM

Row | SMILES | IC90 [µM] | other results
17 | Cn1c(NCc2ccccc2)nc2cnc(-c3ccc4ccccc4c3)cc21 | 9.43 | IC50 (HEPG2TOX_HILL_SLOPE 9.86, HEPG2TOX_R_SQUARED 0.539, PBLUC_HILL_SLOPE 12.2, PBLUC_R_SQUARED 0.511, read-out: LUCIFERASE INFECTION ASSAY - IC50): 7.88 µM
18 | C=C(CS(=O)(=O)c1ccccc1)C(=O)Nc1ccc(C(F)(F)F)cc1 | 7.91 | IC50 (HEPG2TOX_HILL_SLOPE 10, HEPG2TOX_R_SQUARED 0.961, PBLUC_HILL_SLOPE 2.89, PBLUC_R_SQUARED 0.554, read-out: LUCIFERASE INFECTION ASSAY - IC50): 3.7 µM
19 | CSc1sc(C(=O)NC(=O)Nc2ccccc2Cl)c2c1-c1nocc1CC2 | > 7.86 | IC50 (HEPG2TOX_HILL_SLOPE 9.91, HEPG2TOX_R_SQUARED 0.105, read-out: LUCIFERASE INFECTION ASSAY - IC50): > 7.86 µM
20 | O=c1c2ccccc2nc(SCc2cn3cc(Br)ccc3n2)n1-c1ccccc1F | 3.99 | IC50 (HEPG2TOX_HILL_SLOPE 9.92, HEPG2TOX_R_SQUARED 0.174, PBLUC_HILL_SLOPE 13.7, PBLUC_R_SQUARED 0.208, read-out: LUCIFERASE INFECTION ASSAY - IC50): 3.4 µM
21 | Cc1nnnn1/C(=C\c1ccccc1)C(=O)N1CCCC1c1nc2ccccc2s1 (configuration not stated) | > 10 | IC50 (HEPG2TOX_HILL_SLOPE 10.1, HEPG2TOX_R_SQUARED 0.585, PBLUC_HILL_SLOPE 18.2, PBLUC_R_SQUARED 0.211, read-out: LUCIFERASE INFECTION ASSAY - IC50): 9.46 µM
22 | O=C(Nc1nonc1-c1ccc(F)cc1)c1ccc(Br)cc1 | 3.92 | IC50 (HEPG2TOX_HILL_SLOPE 9.79, HEPG2TOX_R_SQUARED 0.939, PBLUC_HILL_SLOPE 11.2, PBLUC_R_SQUARED 0.415, read-out: LUCIFERASE INFECTION ASSAY - IC50): 3.22 µM
23 | COc1cc(CNCCCN(C)C)cc(Cl)c1OCc1ccc(F)cc1 | > 8.66 | IC50 (HEPG2TOX_HILL_SLOPE 10.1, HEPG2TOX_R_SQUARED 0.531, PBLUC_HILL_SLOPE 2.5, PBLUC_R_SQUARED 0.598, read-out: LUCIFERASE INFECTION ASSAY - IC50): 5.14 µM
24 | Oc1ccc(Br)cc1/C=C/c1ccc2cccc(O)c2n1 | > 9.64 | IC50 (HEPG2TOX_HILL_SLOPE 9.84, HEPG2TOX_R_SQUARED 0.0138, PBLUC_HILL_SLOPE 10.3, PBLUC_R_SQUARED 0.574, read-out: LUCIFERASE INFECTION ASSAY - IC50): 8.32 µM
25 | CN(C)CCCOc1ccc(-c2cn3c(-c4ccc5ncccc5c4)cnc3cn2)cn1 | 7.35 | IC50 (HEPG2TOX_HILL_SLOPE 9.84, HEPG2TOX_R_SQUARED 0.59, PBLUC_HILL_SLOPE 45.1, PBLUC_R_SQUARED 0.189, read-out: LUCIFERASE INFECTION ASSAY - IC50): 7 µM
26 | CCOc1ccc(C(C)NC(=O)C(=O)c2c(C)nn(-c3ccccc3)c2C)cc1 (configuration not stated) | 9.94 | IC50 (HEPG2TOX_HILL_SLOPE 9.83, HEPG2TOX_R_SQUARED 0.28, PBLUC_HILL_SLOPE 22.8, PBLUC_R_SQUARED 0.679, read-out: LUCIFERASE INFECTION ASSAY - IC50): 9.03 µM
27 | CCCn1c(NC(=O)c2ccc(S(=O)(=O)N3CC(C)OC(C)C3)cc2)nc2ccccc21 (configuration not stated) | 5.08 | IC50 (HEPG2TOX_HILL_SLOPE 9.83, HEPG2TOX_R_SQUARED 0.869, PBLUC_HILL_SLOPE 10.1, PBLUC_R_SQUARED 0.696, read-out: LUCIFERASE INFECTION ASSAY - IC50): 4.09 µM
28 | O=C(c1c[nH]c2ccccc12)N1CCN(c2nsc3ccccc23)CC1 | 3.82 | IC50 (HEPG2TOX_HILL_SLOPE 9.85, HEPG2TOX_R_SQUARED 0.824, PBLUC_HILL_SLOPE 13.5, PBLUC_R_SQUARED 0.79, read-out: LUCIFERASE INFECTION ASSAY - IC50): 3.25 µM
29 | COC(=O)c1c(NC(=O)c2ccco2)c2cc(NC(C)Cc3ccccc3OC)cnc2n1C (configuration not stated) | > 7.14 | IC50 (HEPG2TOX_HILL_SLOPE 9.88, HEPG2TOX_R_SQUARED 0.405, PBLUC_HILL_SLOPE 3.37, PBLUC_R_SQUARED 0.677, read-out: LUCIFERASE INFECTION ASSAY - IC50): 4.39 µM
30 | N#Cc1ccc(C#CCOC(=O)c2ccc(Cl)cc2)cc1 | > 11.2 | IC50 (HEPG2TOX_HILL_SLOPE 9.79, HEPG2TOX_R_SQUARED 0.928, PBLUC_HILL_SLOPE 1.7, PBLUC_R_SQUARED 0.764, read-out: LUCIFERASE INFECTION ASSAY - IC50): 3.56 µM
31 | Cc1ccn2cc(C(=O)Nc3nnc(CC(C)C)s3)nc2c1 | 3.7 | IC50 (HEPG2TOX_HILL_SLOPE 9.95, HEPG2TOX_R_SQUARED 0.674, PBLUC_HILL_SLOPE 11.8, PBLUC_R_SQUARED 0.71, read-out: LUCIFERASE INFECTION ASSAY - IC50): 3.07 µM
